Source: patent US20090011424A1, “Cancer-suppressing agents” (Tokyo Medical and Dental University, priority 2005, published 2009)

Tested on: NR1I2 gene
Experiment: RT-PCR of NR1I2 messenger RNA in 8 neuroblastoma cell lines cultured with 5-aza-dCyd
Assay type: cell-based, human
Settings: 8 neuroblastoma cell lines lacking NR1I2 mRNA; 1 μM for 5 days
Text: Cell lines used were human-derived neuroblastoma cells SK-N-KS, SK-N-AS, SK-N-SH, SK-N-DZ, SH-SY5Y, MP-N-TS, MP-N-MS, KP-N-RT, KP-N-SIFA, KP-N-SILA, KP-N-TK, KP-N-YS, SMS-KCN, SMS-KAN, SJ-N-CG, NB-1, CHP134, IMR32, and GOTO (Saito-Ohara F, et al. Cancer Res., 63, 1876, 2003), which were derived from […] surgically excised samples. In addition, in order to obtain a material subjected to inhibition of DNA methylation, 5-aza-deoxycytidine (5-aza-dCyd) serving a DNA methyltransferase inhibitor was added to each cell at a concentration of 1 μM for 5 days during culture.
Under general culture conditions, 8 neuroblastoma cell lines lacking the expression of messenger RNA of NR1I2 gene were cultured with the addition of 5-aza-deoxycytidine (5-aza-dCyd) serving as a DNA methyltransferase inhibitor at a concentration of 1 μM for 5 days. The expression levels of messenger RNA of NR1I2 gene in the cells were compared with each other by RT-PCR (FIG. 4). As a control for the expression level obtained by RT-PCR, GAPDH was used.

Compound: Nc1ncn([C@H]2C[C@H](O)[C@@H](CO)O2)c(=O)n1 [5-aza-dCyd, 5-aza-deoxycytidine]
- expression of messenger RNA of NR1I2 gene: expression of messenger RNA of NR1I2 genes was observed
